Assay results from ChEMBL document CHEMBL6120979, “Cell penetrable peptide nucleic acids targeting PDZK1IP1 with anti-inflammatory potential in human keratinocytes” (Bioorg Med Chem Lett, 2025).
Activity calls are given as the source filed them. No cut-off for these calls is given here.

Assays:
Keratinocyte [1] = assay: Antiinflammatory activity in human keratinocytes assessed as downregulation of PDZK1IP1 gene expression preincubated with compound for 24 hrs followed by IFN-gamma addition and measured after 24 hrs by RT-qPCR analysis; type: functional, cell-based; settings: dose 0.01-1 µM, time 48.0 hrs
Keratinocyte [2] = assay: Inhibition of PDZK1IP1 mRNA expression in human keratinocytes incubated for 24 hrs by RT-qPCR analysis; type: functional, cell-based
RNA [3] = assay: Binding affinity to complementary RNA (unknown origin) in sodium phosphate buffer assessed as melting temperature of PNA-RNA duplex; type: nucleic-acid assay
Keratinocyte [4] = assay: Antiinflammatory activity in human keratinocytes assessed as downregulation of IL6 gene expression preincubated with compound for 24 hrs followed by IFN-gamma addition and measured after 24 hrs by RT-qPCR analysis; type: functional, cell-based; settings: dose 0.01-1 µM, time 48.0 hrs
Keratinocyte [5] = assay: Antiinflammatory activity in human keratinocytes assessed as downregulation of PTGS2 gene expression preincubated with compound for 24 hrs followed by IFN-gamma addition and measured after 24 hrs by RT-qPCR analysis; type: functional, cell-based; settings: dose 0.01-1 µM, time 48.0 hrs
RNA [6] = assay: Binding affinity to complementary RNA (unknown origin) with mismatch bases in sodium phosphate buffer; type: nucleic-acid assay
Keratinocyte [7] = assay: Inhibition of PDZK1IP1 mRNA expression in human keratinocytes at 1 uM incubated for 24 hrs by RT-qPCR analysis; type: functional, cell-based
Keratinocyte [8] = assay: Antiinflammatory activity in human keratinocytes assessed as downregulation of PTGS2 gene expression at 1 uM preincubated with compound for 24 hrs followed by IFN-gamma addition and measured after 24 hrs by RT-qPCR analysis; type: functional, cell-based; settings: time 48.0 hrs
Keratinocyte [9] = assay: Antiinflammatory activity in human keratinocytes assessed as downregulation of IL6 gene expression at 1 uM preincubated with compound for 24 hrs followed by IFN-gamma addition and measured after 24 hrs by RT-qPCR analysis; type: functional, cell-based; settings: time 48.0 hrs
Keratinocyte [10] = assay: Antiinflammatory activity in human keratinocytes assessed as downregulation of PDZK1IP1 gene expression at 1 uM preincubated with compound for 24 hrs followed by IFN-gamma addition and measured after 24 hrs by RT-qPCR analysis; type: functional, cell-based; settings: time 48.0 hrs
Keratinocyte [11] = assay: Inhibition of PDZK1IP1 mRNA expression in human keratinocytes at 0.01 to 1 uM incubated for 24 hrs by RT-qPCR analysis; type: functional, cell-based; settings: dose 0.01-1 µM

Compound	Activity (Keratinocyte [1])	inhibition (Keratinocyte [2])	Tm (RNA [3])	Activity (Keratinocyte [4])	Activity (Keratinocyte [5])	Activity (RNA [6])	inhibition (Keratinocyte [7])	Activity (Keratinocyte [8])	Activity (Keratinocyte [9])	Activity (Keratinocyte [10])	inhibition (Keratinocyte [11])
Cc1cn(CC(=O)N(CCN)CC(=O)NCCN(CC(=O)NCCN(CC(=O)NCCN(CC(=O)NCCN(CC(=O)NCCN(CC(=O)NCCN(CC(=O)NCCN(CC(=O)NCCN(CC(=O)NCCN(CC(=O)NCCN(CC(=O)NCCN(CC(=O)NCCN(CC(=O)NCCN(CC(=O)O)C(=O)Cn2cnc3c(=O)[nH]c(N)nc32)C(=O)Cn2cnc3c(=O)[nH]c(NCCCCCCN)nc32)C(=O)Cn2cc(C)c(=O)[nH]c2=O)C(=O)Cn2ccc(N)nc2=O)C(=O)Cn2ccc(N)nc2=O)C(=O)Cn2cc3cc(COCCN)[nH]c3nc2=O)C(=O)Cn2cc(C)c(=O)[nH]c2=O)C(=O)Cn2ccc(N)nc2=O)C(=O)Cn2cnc3c(=O)[nH]c(NCCCCCCN)nc32)C(=O)Cn2cnc3c(=O)[nH]c(N)nc32)C(=O)Cn2cnc3c(N)nc(NCCCCCN)nc32)C(=O)Cn2ccc(N)nc2=O)C(=O)Cn2cnc3c(=O)[nH]c(NCCCCCCN)nc32)c(=O)[nH]c1=O	Dose-dependent-effect	Dose-dependent-effect	80 °C	Dose-dependent-effect	Dose-dependent-effect	inactive	Active				
Cc1cn(CC(=O)N(CCN)CC(=O)NCCN(CC(=O)NCCN(CC(=O)NCCN(CC(=O)NCCN(CC(=O)NCCN(CC(=O)NCCN(CC(=O)NCCN(CC(=O)NCCN(CC(=O)NCCN(CC(=O)NCCN(CC(=O)NCCN(CC(=O)NCCN(CC(=O)NCCN(CC(=O)NCCN(CC(=O)NCCN(CC(=O)NCCN(CC(=O)NCCN(CC(=O)NCCN(CC(=O)NCCN(CC(N)=O)C(=O)Cn2cnc3c(=O)[nH]c(N)nc32)C(=O)Cn2ccc(N)nc2=O)C(=O)Cn2cnc3c(N)nc(NCCCCCN)nc32)C(=O)Cn2cc(C)c(=O)[nH]c2=O)C(=O)Cn2ccc(N)nc2=O)C(=O)Cn2cnc3c(N)ncnc32)C(=O)Cn2cnc3c(=O)[nH]c(N)nc32)C(=O)Cn2cnc3c(N)ncnc32)C(=O)Cn2ccc(N)nc2=O)C(=O)Cn2cnc3c(N)nc(N)nc32)C(=O)Cn2cnc3c(N)nc(NCCCCCN)nc32)C(=O)Cn2ccc(N)nc2=O)C(=O)Cn2cc(C)c(=O)[nH]c2=O)C(=O)Cn2cc(C)c(=O)[nH]c2=O)C(=O)Cn2ccc(N)nc2=O)C(=O)Cn2cnc3c(N)nc(NCCCCCN)nc32)C(=O)Cn2ccc(N)nc2=O)C(=O)Cn2cc(C)c(=O)[nH]c2=O)C(=O)Cn2cc3cc(COCCN)[nH]c3nc2=O)c(=O)[nH]c1=O							inactive	inactive	inactive	inactive	
Cc1cn(CC(=O)N(CCNC(=O)CN(CCNC(=O)CN(CCNC(=O)CN(CCNC(=O)CN(CCNC(=O)CN(CCNC(=O)CN(CCN)C(=O)Cn2cnc3c(=O)[nH]c(N)nc32)C(=O)Cn2cnc3c(=O)[nH]c(NCCCCCCN)nc32)C(=O)Cn2ccc(N)nc2=O)C(=O)Cn2cc(C)c(=O)[nH]c2=O)C(=O)Cn2cc3cc(COCCN)[nH]c3nc2=O)C(=O)Cn2ccc(N)nc2=O)CC(=O)NCCN(CC(=O)NCCN(CC(=O)NCCN(CC(=O)NCCN(CC(=O)NCCN(CC(=O)NCCN(CC(=O)NCCN(CC(=O)O)C(=O)Cn2cnc3c(N)nc(NCCCCCN)nc32)C(=O)Cn2ccc(N)nc2=O)C(=O)Cn2cnc3c(=O)[nH]c(N)nc32)C(=O)Cn2cnc3c(=O)[nH]c(NCCCCCCN)nc32)C(=O)Cn2cc(C)c(=O)[nH]c2=O)C(=O)Cn2cc3cc(COCCN)[nH]c3nc2=O)C(=O)Cn2ccc(N)nc2=O)c(=O)[nH]c1=O			84 °C			inactive	Active				Mild_effect; Mild Dose Dependent Effect Observed
